From patent US20230391772A1, “METHODS AND COMPOSITIONS FOR TARGETED PROTEIN DEGRADATION” (Ranok Therapeutics (Hangzhou) Co. Ltd., priority 2020, published 2023)

Experiments:
[1] = target: T1, HSP90a protein (Homo sapiens, UniProt P07900); assay: HSP90α-binding fluorescent polarization (FP) assay, BODIPY-labeled RNK04010 probe; settings: FP competition with RNK04010 (BODIPY-labeled), 5 nM, 300 min at 25° C.
T1 construct: purchased BPS Bioscience 50298
Description: HSP90α-Binding Fluorescent Polarization (FP) Assay
Binding of test compounds to HSP90a protein was measured by fluorescent polarization (FP) using the HSP90a (N-terminal) Assay Kit (BPS Bioscience, #50298), following the manufacturer's instructions, except as noted. Fluorescently labeled HSP90-binding compounds, either the provided FITC-geldanamycin (5 nM final concentration) or RNK04010, a triazolone-based HSP90 binding small molecule labeled with BODIPY through a piperizine-phenyl linker (5 nM final concentration) were employed. A 2.5-fold serial dilution of each test compound ranging from 20 μM to 5.2 nM was assayed for binding to HSP90a. After the final step of adding HSP90a protein to each assay well, plates were mixed by brief shaking, incubated at 25° C. for 120 min for FITC-geldanamycin or 300 min for RNK04010, and fluorescence was measured using a PerkinElmer EnVision Plate Reader.

[2] = target: KRAS(G12C) (Homo sapiens, UniProt P01116, G12C); assay: KRAS(G12C)/SOS1 homogeneous time-resolved fluorescence (HTRF) assay; parameters: purchased Cisbio 63ADK000CB16PEG; settings: absence of GTP, 4° C. for 3 hr, read-out: KRAS (G12C) binding
Description: KRAS(G12C)/SOS1 Homogeneous Time-Resolved Fluorescence (HTRF) Assay
Binding of test compounds to KRAS(G12C) protein, which in turn blocks KRAS(G12C) interaction with the SOS1 protein, was measured in the absences of GTP by homogeneous time-resolved fluorescence (HTRF) using the KRAS-G12C/SOS1 Binding Assay Kit (Cisbio, #63ADK000CB16PEG), following the manufacturer's instructions, except as noted. 3-fold serial dilutions of each test compound were prepared ranging from […] to 1.02 nM. The test compound was mixed and incubated with reaction components, incubated in a sealed plate at 4° C. for 3 hr and fluorescence was measured using a PerkinElmer Envision plate reader.

[3] = test system: MIA PaCa-2 human pancreatic carcinoma; assay: MIA PaCa-2 CCK-8 proliferation assay; assay type: cell-based; settings: Homo sapiens, MIA PaCa-2, 72 h, MIA PaCa-2 cells
Description: The following cancer cell lines were employed: BT-474 human breast carcinoma (ATCC, #HTB-20); MIA PaCa-2 human pancreatic carcinoma [2 copies KRAS(G12C)](ATCC, #CRL-1420); NCI-H23 human non-small cell lung cancer [1 copy KRAS(G12C)](ATCC, #CRL-5800); NCI-H358 human non-small cell lung cancer [1 copy KRAS(G12C)](ATCC, #CRL-5807); LU65A human lung carcinoma (Pharmaron, Beijing, China). Cell lines were cultured essentially according to ATCC and Pharmaron recommendations.
Cancer Cell Line Proliferation (CCK-8) Assays
3-fold serial dilutions of each test compound were prepared ranging from 20 μM to 1.02 nM.
% Inhibition=100−(D−B)/(S−B)*100%. • S: Absorbance of cells treated with DMSO • D: Absorbance of compound-treated cells • B: Absorbance of medium with DMSO without cells

KRAS(G12C), sequence (P01116 1-188 isoform P01116-2 G12C): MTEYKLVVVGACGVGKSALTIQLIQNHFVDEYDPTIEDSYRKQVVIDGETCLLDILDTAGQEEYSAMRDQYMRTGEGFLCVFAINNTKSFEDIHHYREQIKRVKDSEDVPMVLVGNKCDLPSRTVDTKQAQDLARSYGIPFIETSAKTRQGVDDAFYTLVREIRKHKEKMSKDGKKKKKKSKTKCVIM

SMILES | IC50 [1] | IC50 [2] | EC50 [3]
C=CC(=O)N1CCN(c2nc(OCCN3CCN(C4CCN(Cc5ccc(-n6c(O)nnc6-c6cc(C)c(O)cc6O)cc5)CC4)CC3)nc3c2CCN(c2cccc4cccc(Cl)c24)C3)C[C@@H]1CC#N [Compound 267, (S)-2-(1-acryloyl-4-(7-(8-chloronaphthalen-1-yl)-2-(2-(4-(1-(4-(3-(2,4-dihydroxy-5-methylphenyl)-5-hydroxy-4H-1,2,4-triazol-4-yl)benzyl)piperidin-4-yl)piperazin-1-yl)ethoxy)-5,6,7,8-tetrahydropyrido[3,4-d]pyrimidin-4-yl)piperazin-2-yl)acetonitrile] | – | < 100 nM | > 1000 nM
C=CC(=O)N1CCN(c2nc(OC[C@@H]3CCN(C(=O)COc4ccc(Nc5cc(-n6nc(C(F)(F)F)c7c6CC(C)(C)CC7=O)ccc5C(N)=O)cc4)C3)nc3c2CCN(c2cccc4cccc(Cl)c24)C3)C[C@@H]1CC#N [Compound 178, 2-((4-(2-((R)-3-(((4-((S)-4-acryloyl-3-(cyanomethyl)piperazin-1-yl)-7-(8-chloronaphthalen-1-yl)-5,6,7,8-tetrahydropyrido[3,4-d]pyrimidin-2-yl)oxy)methyl)pyrrolidin-1-yl)-2-oxoethoxy)phenyl)amino)-4-(6,6-dimethyl-4-oxo-3-(trifluoromethyl)-4,5,6,7-tetrahydro-1H-indazol-1-yl)benzamide] | > 1000 nM | – | > 1000 nM
C=CC(=O)N1CCN(c2nc(OCCN3CCC(C(=O)N4CCC(CN5CCC(Cc6ccc(-n7c(O)nnc7-c7cc(O)c(C(C)C)cc7O)cc6)CC5)CC4)CC3)nc3c2CCN(c2cccc4cccc(Cl)c24)C3)C[C@@H]1CC#N [Compound 238, (S)-2-(1-acryloyl-4-(7-(8-chloronaphthalen-1-yl)-2-(2-(4-(4-((4-(4-(3-(2,5-dihydroxy-4-isopropylphenyl)-5-hydroxy-4H-1,2,4-triazol-4-yl)benzyl)piperidin-1-yl)methyl)piperidine-1-carbonyl)piperidin-1-yl)ethoxy)-5,6,7,8-tetrahydropyrido[3,4-d]pyrimidin-4-yl)piperazin-2-yl)acetonitrile] | – | 100 to 1000 nM | > 1000 nM
C=CC(=O)N1CCN(c2nc(OCCN3CCC(C(=O)N4CCN(CCNC(=O)c5nnc(-c6cc(C(C)C)c(O)cc6O)n5-c5ccccc5)CC4)CC3)nc3c2CCN(c2cccc4cccc(Cl)c24)C3)C[C@@H]1CC#N [Compound 243, (S)—N-(2-(4-(1-(2-((4-(4-acryloyl-3-(cyanomethyl)piperazin-1-yl)-7-(8-chloronaphthalen-1-yl)-5,6,7,8-tetrahydropyrido[3,4-d]pyrimidin-2-yl)oxy)ethyl)piperidine-4-carbonyl)piperazin-1-yl)ethyl)-5-(2,4-dihydroxy-5-isopropylphenyl)-4-phenyl-4H-1,2,4-triazole-3-carboxamide] | – | < 100 nM | 100 to 1000 nM
C=CC(=O)N1CCN(c2nc(OCCN3CCC(C(=O)N4CCN(Cc5ccc(-n6c(C(=O)NCCN7CCN(S(C)(=O)=O)CC7)nnc6-c6cc(C(C)C)c(O)cc6O)cc5)CC4)CC3)nc3c2CCN(c2cccc4cccc(Cl)c24)C3)C[C@@H]1CC#N [Compound 242, (S)-4-(4-((4-(1-(2-((4-(4-acryloyl-3-(cyanomethyl)piperazin-1-yl)-7-(8-chloronaphthalen-1-yl)-5,6,7,8-tetrahydropyrido[3,4-d]pyrimidin-2-yl)oxy)ethyl)piperidine-4-carbonyl)piperazin-1-yl)methyl)phenyl)-5-(2,4-dihydroxy-5-isopropylphenyl)-N-(2-(4-(methylsulfonyl)piperazin-1-yl)ethyl)-4H-1,2,4-triazole-3-carboxamide] | – | < 100 nM | 100 to 1000 nM

Second part, the molecule after the results:

IC50 [1] | IC50 [2] | EC50 [3] | SMILES
< 100 nM | < 100 nM | – | C=CC(=O)N1CCN(c2nc(OC[C@@H]3CC[C@H](C(=O)N4CCN(C(=O)C5CCN(Cc6ccc(-n7c(O)nnc7-c7cc(C(C)C)c(O)cc7O)cc6)CC5)CC4)N3C)nc3c2CCN(c2cccc4cccc(Cl)c24)C3)C[C@@H]1CC#N [Compound 341, 2-[(2S)-4-[7-(8-chloronaphthalen-1-yl)-2-{[(2S,5R)-5-{4-[1-({4-[3-(2,4-dihydroxy-5-isopropylphenyl)-5-hydroxy-1,2,4-triazol-4-yl]phenyl}methyl)piperidine-4-carbonyl]piperazine-1-carbonyl}-1-methylpyrrolidin-2-yl]methoxy}-5H,6H,8H-pyri-do[3,4-d]pyrimidin-4-yl]-1-(prop-2-enoyl)piperazin-2-yl]acetonitrile]
– | < 100 nM | 100 to 1000 nM | C=CC(=O)N1CCN(c2nc(OCCN3CCC(C(=O)N4CCN(Cc5ccc(-n6c(C(=O)NC)nnc6-c6cc(C(C)C)c(O)cc6O)cc5)CC4)CC3)nc3c2CCN(c2cccc4cccc(Cl)c24)C3)C[C@@H]1CC#N [Compound 239, (S)-4-(4-((4-(1-(2-((4-(4-acryloyl-3-(cyanomethyl)piperazin-1-yl)-7-(8-chloronaphthalen-1-yl)-5,6,7,8-tetrahydropyrido[3,4-d]pyrimidin-2-yl)oxy)ethyl)piperidine-4-carbonyl)piperazin-1-yl)methyl)phenyl)-5-(2,4-dihydroxy-5-isopropylphenyl)-N-methyl-4H-1,2,4-triazole-3-carboxamide]
– | < 100 nM | 100 to 1000 nM | C=CC(=O)N1CCN(c2nc(OCCN3CCC(N4CCN(C(=O)C5CCN(Cc6ccc(-n7c(C(N)=O)nnc7-c7cc(C(C)C)c(O)cc7O)cc6)CC5)CC4)CC3)nc3c2CCN(c2cccc4cccc(Cl)c24)C3)C[C@@H]1CC#N [Compound 249, (S)-4-(4-((4-(4-(1-(2-((4-(4-acryloyl-3-(cyanomethyl)piperazin-1-yl)-7-(8-chloronaphthalen-1-yl)-5,6,7,8-tetrahydropyrido[3,4-d]pyrimidin-2-yl)oxy)ethyl)piperidin-4-yl)piperazine-1-carbonyl)piperidin-1-yl)methyl)phenyl)-5-(2,4-dihydroxy-5-isopropylphenyl)-4H-1,2,4-triazole-3-carboxamide]
< 100 nM | – | 100 to 1000 nM | C=CC(=O)N1CCN(c2nc(OC[C@@H]3CN(C(=O)C4CCN(Cc5ccc(-n6c(C(=O)NCC(F)(F)F)nnc6-c6cc(C(C)C)c(O)cc6O)cc5)CC4)CCN3C)nc3c2CCN(c2cccc4cccc(Cl)c24)C3)C[C@@H]1CC#N [Compound 199, 4-(4-((4-((S)-3-(((4-((S)-4-acryloyl-3-(cyanomethyl)piperazin-1-yl)-7-(8-chloronaphthalen-1-yl)-5,6,7,8-tetrahydropyrido[3,4-d]pyrimidin-2-yl)oxy)methyl)-4-methylpiperazine-1-carbonyl)piperidin-1-yl)methyl)phenyl)-5-(2,4-dihydroxy-5-isopropylphenyl)-N-(2,2,2-trifluoroethyl)-4H-1,2,4-triazole-3-carboxamide]
< 100 nM | – | > 1000 nM | C=CC(=O)N1CCN(c2nc(OC[C@@H]3C[C@@H](NC(=O)C4CCN(Cc5ccc(-n6c(C(=O)NCCN(CC)CC)nnc6-c6cc(C(C)C)c(O)cc6O)cc5)CC4)CN3C)nc3c2CCN(c2cccc4cccc(Cl)c24)C3)C[C@@H]1CC#N [Compound 204, N-((3R,5S)-5-(((4-((S)-4-acryloyl-3-(cyanomethyl)piperazin-1-yl)-7-(8-chloronaphthalen-1-yl)-5,6,7,8-tetrahydropyrido[3,4-d]pyrimidin-2-yl)oxy)methyl)-1-methylpyrrolidin-3-yl)-1-(4-(3-((2-(diethylamino)ethyl)carbamoyl)-5-(2,4-dihydroxy-5-isopropylphenyl)-4H-1,2,4-triazol-4-yl)benzyl)piperidine-4-carboxamide]
< 100 nM | – | 100 to 1000 nM | C=CC(=O)N1CCN(c2nc(OCC3CCN(C(=O)C4CCN(Cc5ccc(-n6c(O)nnc6-c6cc(C(C)C)c(O)cc6O)cc5)CC4)CC3)nc3c2CCN(c2cccc4cccc(Cl)c24)C3)C[C@@H]1CC#N [Compound 179, (S)-2-(1-acryloyl-4-(7-(8-chloronaphthalen-1-yl)-2-((1-(1-(4-(3-(2,4-dihydroxy-5-isopropylphenyl)-5-hydroxy-4H-1,2,4-triazol-4-yl)benzyl)piperidine-4-carbonyl)piperidin-4-yl)methoxy)-5,6,7,8-tetrahydropyrido[3,4-d]pyrimidin-4-yl)piperazin-2-yl)acetonitrile]
